These results are taken from patent US12410171B2, “Tropomyosin receptor kinase (TRK) degradation compounds and methods of use” (Cullgen (Shanghai), Inc., priority 2020, dated 2025).

In one experiment the target is T1, TPM3-TRKA fusion protein (Homo sapiens, UniProt P04629).
T1 construct: The resulted chimeric proteins always retain the kinase domain of TRK proteins; TPM3 (fusion partner, N-terminal part of tropomyosin alpha-3, P06753); endogenous in cells; host or cells: KM12 colon cancer cells; the other entry of the earlier key: TPM3 (P06753, Tropomyosin alpha-3 chain)
T1 sequence (P04629 with tags, fused parts or gaps): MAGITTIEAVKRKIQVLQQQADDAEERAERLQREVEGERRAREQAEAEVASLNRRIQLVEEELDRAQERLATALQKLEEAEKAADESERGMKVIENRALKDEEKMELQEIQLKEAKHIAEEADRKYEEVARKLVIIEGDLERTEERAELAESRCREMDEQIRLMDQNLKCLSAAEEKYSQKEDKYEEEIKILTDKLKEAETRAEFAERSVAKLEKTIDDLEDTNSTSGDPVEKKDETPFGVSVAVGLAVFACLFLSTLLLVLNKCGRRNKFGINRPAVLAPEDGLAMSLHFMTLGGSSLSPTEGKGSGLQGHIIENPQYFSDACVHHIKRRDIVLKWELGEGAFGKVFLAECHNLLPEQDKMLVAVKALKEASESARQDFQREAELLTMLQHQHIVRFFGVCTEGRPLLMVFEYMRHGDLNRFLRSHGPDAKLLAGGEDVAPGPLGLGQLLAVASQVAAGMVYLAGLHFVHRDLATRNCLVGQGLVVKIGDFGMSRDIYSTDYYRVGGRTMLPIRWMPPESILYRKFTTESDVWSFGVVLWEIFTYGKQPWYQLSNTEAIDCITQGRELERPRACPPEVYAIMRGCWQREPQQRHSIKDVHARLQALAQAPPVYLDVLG
The experiment can be described thus: TPM3-TRKA fusion protein levels in KM12 cells (Western blot). It is filed as cell-based. Particulars: read-out: Degradation (at 10 nM). The essentials:
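KM12 colon cancer cells were treated with DMSO or compounds at 0.1–100 nM, 0.4–30 nM or other stated concentrations for 4, 8–16 or 16 h. RIPA lysates were BCA-normalized and resolved by SDS-PAGE. TPM3-TRKA was detected by chemiluminescent Western blot, with bands quantified by densitometry.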
(Immunoblotting shows a protein as a band on a membrane.)

Another experiment has as its system KM12 cells. Description: KM12 cell viability (CellTiter-Glo). The experiment is classed as cell-based. Particulars: Homo sapiens. In a few lines: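 KM12 cells seeded at 5000 per well in RPMI 1640 + 10% FBS and exposed 3 days to serial dilutions (11-point 3-fold, 8-point 3-fold from 1000 nM, or 12-point 2-fold). Viability by CellTiter-Glo; IC50 from least-squares nonlinear regression.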
A general note: ATP-based viability assays read luminescence as a measure of living cells.

Where [1] appears, read: 16 h, TPM3-TRKA degradation in KM12 cells at 10 nM compound, category of percentage degradation.
Setting [2] is: 72 h, KM12 cell viability, CellTiter-Glo, three days treatment, read-out: IC50.

Read-outs that look alike come from different tables or passages of the source.

Broadly, the IC50 is the concentration that gives 50% inhibition. As to `O=C1CCC(N2C(=O)c3ccc(N4CC(CN5CCN(c6ccc(C(=O)Nc7n[nH]c8ccc(Cc9cc(F)cc(F)c9)cc78)cc6)CC5)C4)cc3C2=O)C(=O)N1` (stereo not shown) [TR-265, N-(5˜ (3,5-difluorobenzyl)-1H-indazol-3-yl)-4-(4-((1-(2-(2,6-dioxopiperidin-3-yl)-1,3-dioxoisoindolin-5-yl)azetidin-3-yl)methyl)piperazin-1-yl)benzamide], the percent degradation of TPM3-TRKA protein at 0.01 µM on TPM3-TRKA fusion protein (setting [1]) is greater than 80%. Moreover, the half-maximal inhibitory concentration (IC50) in the experiment with KM12 cells (setting [2]) stood at 13.3 nM.
The corresponding values for `O=C1CCC(N2C(=O)c3ccc(NCC(=O)N4CCN(c5ccc(C(=O)Nc6n[nH]c7ccc(Cc8cc(F)cc(F)c8)cc67)c(NCCF)c5)CC4)cc3C2=O)C(=O)N1` (stereo not shown) [TR-266, N-(5-(3,5-difluorobenzyl)-1H-indazol-3-yl)-4-(4˜ ((2-(2,6-dioxopiperidin-3-yl)-1,3-dioxoisoindolin-5-yl)glycyl)piperazin-1-yl)-2-((2-fluoroethyl)amino)benzamide] are greater than 80% and 7.2 nM.
The corresponding values for `O=C1CCC(N2C(=O)c3ccc(N4CC(CN5CCN(c6ccc(C(=O)Nc7n[nH]c8ccc(Cc9cc(F)cc(F)c9)cc78)c(NCCF)c6)CC5)C4)cc3C2=O)C(=O)N1` (stereo not shown) [TR-267, N-(5-(3,5-difluorobenzyl)-1H-indazol-3-yl)-4-(4-((1-(2-(2,6-dioxopiperidin-3-yl)-1,3-dioxoisoindolin-5-yl)azetidin-3-yl)methyl)piperazin-1-yl)-2-((2-fluoroethyl)amino)benzamide] are greater than 80% and 11.7 nM.
For `O=C1CCC(N2C(=O)c3ccc(NCCN4CCN(c5ccc(C(=O)Nc6n[nH]c7ccc(Cc8cc(F)cc(F)c8)cc67)c(NCCF)c5)CC4)cc3C2=O)C(=O)N1` (stereo not shown) [TR-268, N-(5-(3,5-Difluorobenzyl)-1H-indazol-3-yl)-4-(4-(2-((2-(2,6-dioxopiperidin-3-yl)-1,3-dioxoisoindolin-5-yl)amino)ethyl)piperazin-1-yl)-2-((2-fluoroethyl)amino)benzamide], in that order: greater than 80% and 6.2 nM.
With `O=C1CCC(N2C(=O)c3ccc(N4CCN(c5ccc(C(=O)Nc6n[nH]c7ccc(Cc8cc(F)cc(F)c8)cc67)c(NC6CCOCC6)c5)CC4)cc3C2=O)C(=O)N1` (stereo not shown) [TR-269, N-(5-(3,5-Difluorobenzyl)-1H-indazol-3-yl)-4-(4-(2-(2,6-dioxopiperidin-3-yl)-1,3-dioxoisoindolin-5-yl)piperazin-1-yl)-2-((tetrahydro-2H-pyran-4-yl)amino)benzamide], on TPM3-TRKA fusion protein (setting [1]), the percent degradation of TPM3-TRKA protein at 0.01 µM was less than 50%. The IC50 with KM12 cells (setting [2]) came out at 44.6 nM.
The corresponding values for `O=C1CCC(N2C(=O)c3ccc(N4CCC(CN5CCN(c6ccc(C(=O)Nc7n[nH]c8ccc(Cc9cc(F)cc(F)c9)cc78)c(NC7CCOCC7)c6)CC5)C4)cc3C2=O)C(=O)N1` (stereo not shown) [TR-270, N-(5-(3,5-difluorobenzyl)-1H-indazol-3-yl)-4-(4-((1-(2-(2,6-dioxopiperidin-3-yl)-1,3-dioxoisoindolin-5-yl)pyrrolidin-3-yl)methyl)piperazin-1-yl)-2-((tetrahydro-2H-pyran-4-yl)amino)benzamide] are greater than 80% and 10.3 nM.
For `O=C1CCC(N2C(=O)c3ccc(N4CCC(CN5CCN(c6ccc(C(=O)Nc7n[nH]c8ccc(Cc9cc(F)cc(F)c9)cc78)c(NC7CCOCC7)c6)CC5)CC4)cc3C2=O)C(=O)N1` (stereo not shown) [TR-271, N-(5-(3,5-Difluorobenzyl)-1H-indazol-3-yl)-4-(4-((1-(2-(2,6-dioxopiperidin-3-yl)-1,3-dioxoisoindolin-5-yl)piperidin-4-yl)methyl)piperazin-1-yl)-2-((tetrahydro-2H-pyran-4-yl)amino)benzamide], in that order: greater than 80% and 22 nM.
The corresponding values for `O=C1CCC(N2C(=O)c3ccc(N4CCCC(CN5CCN(c6ccc(C(=O)Nc7n[nH]c8ccc(Cc9cc(F)cc(F)c9)cc78)c(NC7CCOCC7)c6)CC5)C4)cc3C2=O)C(=O)N1` (stereo not shown) [TR-272] are 50 to 80% and 20.1 nM.
For `O=C1CCC(N2C(=O)c3ccc(NC(=O)CN4CCN(c5ccc(C(=O)Nc6n[nH]c7ccc(Cc8cc(F)cc(F)c8)cc67)c(NC6CCOCC6)c5)CC4)cc3C2=O)C(=O)N1` (stereo not shown) [TR-273, N-(5-(3,5-Difluorobenzyl)-1H-indazol-3-yl)-4-(4-(2-((2-(2,6-dioxopiperidin-3-yl)-1,3-dioxoisoindolin-5-yl)amino)-2-oxoethyl)piperazin-1-yl)-2-((tetrahydro-2H-pyran-4-yl)amino)benzamide], the percent degradation of TPM3-TRKA protein at 0.01 µM on TPM3-TRKA fusion protein (setting [1]) was greater than 80%. In addition, in the experiment with KM12 cells (setting [2]), the IC50 turned out to be 41.1 nM.
The corresponding values for `O=C1CCC(N2C(=O)c3ccc(CCCN4CCN(c5ccc(C(=O)Nc6n[nH]c7ccc(Cc8cc(F)cc(F)c8)cc67)c(NC6CCOCC6)c5)CC4)cc3C2=O)C(=O)N1` (stereo not shown) [TR-276, N-(5-(3,5-difluorobenzyl)-1H-indazol-3-yl)-4-(4-(3-(2˜ (2,6-dioxopiperidin-3-yl)-1,3-dioxoisoindolin-5-yl)propyl)piperazin-1-yl)-2-((tetrahydro-2H-pyran-4-yl)amino)benzamide] are greater than 80% and 9.9 nM.
As to `O=C1CCC(N2C(=O)c3ccc(N4CCCC(N5CCN(c6ccc(C(=O)Nc7n[nH]c8ccc(Cc9cc(F)cc(F)c9)cc78)c(NC7CCOCC7)c6)CC5)C4)cc3C2=O)C(=O)N1` (stereo not shown) [TR-278, N-(5-(3,5-Difluorobenzyl)-1H-indazol-3-yl)-4-(4-(1-(2-(2,6-dioxopiperidin-3-yl)-1,3-dioxoisoindolin-5-yl)piperidin-3-yl)piperazin-1-yl)-2-((tetrahydro-2/-pyran-4-yl)amino)benzamide], the percent degradation of TPM3-TRKA protein at 0.01 µM at TPM3-TRKA fusion protein (setting [1]) was in the range of 50 to 80%. In addition, the IC50 with KM12 cells (setting [2]) amounted to 34.7 nM.
Turning to `O=C1CCC(N2C(=O)c3ccc(CN4CCCC(N5CCN(c6ccc(C(=O)Nc7n[nH]c8ccc(Cc9cc(F)cc(F)c9)cc78)c(NC7CCOCC7)c6)CC5)C4)cc3C2=O)C(=O)N1` (stereo not shown) [TR-279, N-(5-(3,5-difluorobenzyl)-1H-indazol-3-yl)-4-(4-(1-((2-(2,6-dioxopiperidin-3-yl)-1,3-dioxoisoindolin-5-yl)methyl)piperidin-3-yl)piperazin-1-yl)-2-((tetrahydro-2H-pyran-4-yl)amino)benzamide], on TPM3-TRKA fusion protein (setting [1]), the percent degradation of TPM3-TRKA protein at 0.01 µM was greater than 80%. For the same compound, in the experiment on KM12 cells (setting [2]), the IC50 stood at 19 nM.
Regarding `O=C1CCC(N2C(=O)c3ccc(N4CCC(N5CCN(c6ccc(C(=O)Nc7n[nH]c8ccc(Cc9cc(F)cc(F)c9)cc78)c(NC7CCOCC7)c6)CC5)CC4)cc3C2=O)C(=O)N1` (stereo not shown) [TR-280, N-(5-(3,5-difluorobenzyl)-1H-indazol-3-yl)-4-(4-(1-(2-(2,6-dioxopiperidin-3-yl)-1,3-dioxoisoindolin-5-yl)piperidin-4-yl)piperazin-1-yl)-2-((tetrahydro-2H-pyran-4-yl)amino)benzamide], the percent degradation of TPM3-TRKA protein at 0.01 µM on TPM3-TRKA fusion protein (KM12, 16 h) was greater than 80%. In the experiment with KM12 cells (KM12, 72 h), this compound yielded an IC50 of 4.3 nM.
Turning to `O=C1CCC(N2C(=O)c3ccc(CN4CCC(N5CCN(c6ccc(C(=O)Nc7n[nH]c8ccc(Cc9cc(F)cc(F)c9)cc78)c(NC7CCOCC7)c6)CC5)CC4)cc3C2=O)C(=O)N1` (stereo not shown) [TR-281, N-(5-(3,5-difluorobenzyl)-1H-indazol-3-yl)-4-(4-(1-((2-(2,6-dioxopiperidin-3-yl)-1,3-dioxoisoindolin-5-yl)methyl)piperidin-4-yl)piperazin-1-yl)-2-((tetrahydro-2H-pyran-4-yl)amino)benzamide], the percent degradation of TPM3-TRKA protein at 0.01 µM on TPM3-TRKA fusion protein (setting [1]) is greater than 80%. Moreover, the concentration for half-maximal inhibition (IC50) in the experiment with KM12 cells (setting [2]) stood at 17.4 nM.
The corresponding values for `O=C1CCC(N2C(=O)c3ccc(N4CCOC(CN5CCN(c6ccc(C(=O)Nc7n[nH]c8ccc(Cc9cc(F)cc(F)c9)cc78)c(NC7CCOCC7)c6)CC5)C4)cc3C2=O)C(=O)N1` (stereo not shown) [TR-282, N-(5-(3,5-difluorobenzyl)-1H-indazol-3-yl)-4-(4-((4-(2-(2,6-dioxopiperidin-3-yl)-1,3-dioxoisoindolin-5-yl)morpholin-2-yl)methyl)piperazin-1-yl)-2-((tetrahydro-2H-pyran-4-yl)amino)benzamide] are greater than 80% and 6.3 nM.
As to `O=C1CCC(N2C(=O)c3ccc(C#CCN4CCN(c5ccc(C(=O)Nc6n[nH]c7ccc(Cc8cc(F)cc(F)c8)cc67)c(NC6CCOCC6)c5)CC4)cc3C2=O)C(=O)N1` (stereo not shown) [TR-283, N-(5-(3,5-Difluorobenzyl)-1H-indazol-3-yl)-4-(4-(3-(2-(2,6-dioxopiperidin-3-yl)-1,3-dioxoisoindolin-5-yl)prop-2-yn-1-yl)piperazin-1-yl)-2-((tetrahydro-28-pyran-4-yl)amino)benzamide], at TPM3-TRKA fusion protein (setting [1]), the percent degradation of TPM3-TRKA protein at 0.01 µM was greater than 80%. Besides, the IC50 in the experiment on KM12 cells (setting [2]) worked out at 54 nM.
For `O=C1CCC(N2C(=O)c3ccc(N4CCC(N5CCN(c6ccc(C(=O)Nc7n[nH]c8ccc(Cc9cc(F)cc(F)c9)cc78)c(NC7CCOCC7)c6)CC5)C4)cc3C2=O)C(=O)N1` (stereo not shown) [TR-284, N-(5-(3,5-difluorobenzyl)-1H-indazol-3-yl)-4-(4-(1-(2-(2,6-dioxopiperidin-3-yl)-1,3-dioxoisoindolin-5-yl)pyrrolidin-3-yl)piperazin-1-yl)-2-((tetrahydro-2H-pyran-4-yl)amino)benzamide], in that order: greater than 80% and 5 nM.
